# Source: publication PMC9917282, “Crystal Structure of Inhibitor-Bound Bacterial Oligopeptidase B in the Closed State: Similarity and Difference between Protozoan and Bacterial Enzymes” (International Journal of Molecular Sciences, 2023)
# Target: T1, SpOpB (PSP) (Serratia proteamaculans, UniProt B3VI58)
# T1 construct: gene opdB; plasmid pET-6HisOpB, expressed in E. coli BL21(DE3)RIPL; monomer in asymmetric unit
# T1 sequence (B3VI58 2-677): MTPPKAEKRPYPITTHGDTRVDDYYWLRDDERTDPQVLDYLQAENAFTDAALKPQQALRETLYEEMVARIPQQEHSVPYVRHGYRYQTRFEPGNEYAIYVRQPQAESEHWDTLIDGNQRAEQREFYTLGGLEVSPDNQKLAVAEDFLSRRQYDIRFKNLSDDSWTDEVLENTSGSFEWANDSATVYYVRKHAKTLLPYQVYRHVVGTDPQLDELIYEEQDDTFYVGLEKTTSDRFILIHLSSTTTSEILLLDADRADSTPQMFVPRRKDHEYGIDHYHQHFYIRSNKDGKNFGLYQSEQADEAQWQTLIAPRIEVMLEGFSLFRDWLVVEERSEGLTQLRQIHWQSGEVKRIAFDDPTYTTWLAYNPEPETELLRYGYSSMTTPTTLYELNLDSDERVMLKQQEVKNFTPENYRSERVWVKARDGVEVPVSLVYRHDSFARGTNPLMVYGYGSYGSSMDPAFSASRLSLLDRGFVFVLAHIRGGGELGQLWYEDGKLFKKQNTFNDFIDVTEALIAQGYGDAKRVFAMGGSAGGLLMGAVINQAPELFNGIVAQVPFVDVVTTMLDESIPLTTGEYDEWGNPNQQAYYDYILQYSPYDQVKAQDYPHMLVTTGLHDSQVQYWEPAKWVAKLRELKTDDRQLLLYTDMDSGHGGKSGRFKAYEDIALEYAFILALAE
# Assay: Kitz-Wilson inactivation kinetics, residual BAPNA hydrolysis at […] nm; crystal structure of complex at […] A
# Format: biochemical
# Conditions: covalent; irreversible alkylation, Ki of the initial enzyme-inhibitor complex; bound to S532 and H652; 0.1 M Tris-HCl pH 8.0, 25 °C; 70 nM enzyme, 50–260 µM TCK
smiles,measurement,value
Cc1ccc(S(=O)(=O)N[C@@H](CCCCN)C(=O)CCl)cc1 [TCK],KI (inactivation),280 ± 60 µM
